Where “and” joins values, the source holds several entries; their conditions need not be identical. Equal entries are not always repeated. Toxic doses and inconclusive results are not listed. How the source made its calls: active means survival T/C of 150% or more; inactive means T/C below 125% in these data.
Test system: AKR/Lw mice, AKR lymphoma ip, median survival T/C
Experiment: NCI In Vivo Anticancer Drug Screen. Data for tumor model Lymphoma AKR (Transplanted) (intraperitoneal) in AKR/Lw mice
Settings: endpoint: median survival time, higher = longer survival
Experimental: The antitumor activity of compounds was measured in mice bearing transplantable tumors. Survival or tumor size were measured and the results are expressed as the measurement made in the treated group (T) divided by the measurement made in the vehicle treated control group (C). The tumor model used in this assay is Lymphoma AKR (Transplanted) (intraperitoneal) in AKR/Lw mice

[1] = dose: 100.0 mg/kg/injection, schedule: Q01DX001 (ip), vehicle: saline

Measured: T/C

CC[C@]1(O)C[C@H]2CN(CCc3c([nH]c4ccccc34)[C@@](C(=O)OC)(c3cc4c(cc3OC)N(C=O)[C@H]3[C@@](O)(C(=O)OC)[C@H](OC(C)=O)[C@]5(CC)C=CCN6CC[C@]43[C@@H]65)C2)C1
inactive: dose: 0.01 mg/kg/injection, schedule: Q10DX002 (ip), vehicle: saline 113 % of control | dose: 0.02 mg/kg/injection, schedule: Q01DX001 (ip), vehicle: saline 110 % of control | dose: 0.02 mg/kg/injection, schedule: Q04DX003 (ip), vehicle: saline 86 % of control | dose: 0.02 mg/kg/injection, schedule: Q10DX002 (ip), vehicle: saline 119 % of control | dose: 0.03 mg/kg/injection, schedule: Q04DX003 (ip), vehicle: saline 93 % of control and 107 % of control and 114 % of control | dose: 0.03 mg/kg/injection, schedule: Q10DX002 (ip), vehicle: saline 119 % of control | dose: 0.05 mg/kg/injection, schedule: Q01DX001 (ip), vehicle: saline 101 % of control | dose: 0.05 mg/kg/injection, schedule: Q04DX003 (ip), vehicle: saline 94 % of control | dose: 0.06 mg/kg/injection, schedule: Q04DX002 (ip), vehicle: saline 110 % of control | dose: 0.06 mg/kg/injection, schedule: Q04DX003 (ip), vehicle: saline 111 % of control and 116 % of control | dose: 0.1 mg/kg/injection, schedule: Q01DX001 (ip), vehicle: saline 103 % of control | dose: 0.1 mg/kg/injection, schedule: Q04DX003 (ip), vehicle: saline 94 % of control | dose: 0.12 mg/kg/injection, schedule: Q01DX001 (ip), vehicle: saline 100 % of control and 111 % of control and 119 % of control | dose: 0.12 mg/kg/injection, schedule: Q01DX009 (ip), vehicle: saline 109 % of control | dose: 0.13 mg/kg/injection, schedule: Q04DX002 (ip), vehicle: water 90 % of control and 95 % of control | dose: 0.2 mg/kg/injection, schedule: Q04DX003 (ip), vehicle: saline 94 % of control | dose: 0.25 mg/kg/injection, schedule: Q01DX009 (ip), vehicle: saline 109 % of control | dose: 0.4 mg/kg/injection, schedule: Q04DX003 (ip), vehicle: saline 118 % of control | dose: 0.5 mg/kg/injection, schedule: Q04DX002 (ip), vehicle: water 107 % of control and 109 % of control | dose: 1.0 mg/kg/injection, schedule: Q10DX002 (ip), vehicle: saline 33 % of control | dose: 1.5 mg/kg/injection, schedule: Q10DX002 (ip), vehicle: saline 68 % of control | dose: 0.2 micrograms/kg/injection, schedule: Q01DX009 (ip), vehicle: saline 103 % of control | dose: 0.5 micrograms/kg/injection, schedule: Q01DX009 (ip), vehicle: saline 100 % of control | dose: 0.6 micrograms/kg/injection, schedule: Q01DX009 (ip), vehicle: saline 96 % of control | dose: 1.0 micrograms/kg/injection, schedule: Q01DX009 (ip), vehicle: saline 86 % of control and 100 % of control | dose: 1.2 micrograms/kg/injection, schedule: Q01DX009 (ip), vehicle: saline 87 % of control | dose: 2.0 micrograms/kg/injection, schedule: Q01DX009 (ip), vehicle: saline 94 % of control | dose: 6.0 micrograms/kg/injection, schedule: Q01DX009 (ip), vehicle: saline 102 % of control and 114 % of control | dose: 15.0 micrograms/kg/injection, schedule: Q01DX009 (ip), vehicle: saline 122 % of control | dose: 20.0 micrograms/kg/injection, schedule: Q01DX009 (ip), vehicle: saline 97 % of control | dose: 25.0 micrograms/kg/injection, schedule: Q01DX009 (ip), vehicle: saline 97 % of control | dose: 30.0 micrograms/kg/injection, schedule: Q01DX009 (ip), vehicle: saline 112 % of control | dose: 50.0 micrograms/kg/injection, schedule: Q01DX009 (ip), vehicle: saline 102 % of control | dose: 60.0 micrograms/kg/injection, schedule: Q01DX009 (ip), vehicle: saline 120 % of control | dose: 100.0 micrograms/kg/injection, schedule: Q01DX009 (ip), vehicle: saline 114 % of control
active: dose: 0.5 mg/kg/injection, schedule: Q04DX002 (ip), vehicle: saline 223 % of control | dose: 0.75 mg/kg/injection, schedule: Q01DX001 (ip), vehicle: saline 157 % of control | dose: 1.0 mg/kg/injection, schedule: Q04DX003 (ip), vehicle: saline 359 % of control

CCCCCCCCCCCCCCCC(=O)N(CCCN)CCCCCCCCCN(CCCN)C(=O)CCCCCCCCCCCCCCC
inactive: dose: 12.5 mg/kg/injection, schedule: Q01DX009 (ip), vehicle: saline 100 % of control | dose: 25.0 mg/kg/injection, schedule: Q01DX009 (ip), vehicle: saline 92 % of control | dose: 50.0 mg/kg/injection, schedule: Q01DX009 (ip), vehicle: saline 107 % of control | dose: 50.0 mg/kg/injection, schedule: Q04DX003 (ip), vehicle: other 95 % of control | [1] 108 % of control | dose: 100.0 mg/kg/injection, schedule: Q04DX003 (ip), vehicle: other 95 % of control

c1ccc2c(c1)CNC2
inactive: [1] 97 % of control | dose: 200.0 mg/kg/injection, schedule: Q01DX001 (ip), vehicle: saline 123 % of control | dose: 400.0 mg/kg/injection, schedule: Q01DX001 (ip), vehicle: saline 111 % of control
